Reference: patent publication US10092537B2, “Use for PAI-1 inhibitor” (RENASCIENCE CO., LTD., priority 2013, dated 2018)

Key:
hematopoietic stem cells [1] = test: Bone-marrow transplanted mice, compound c, G-CSF and G-CSF neutralizing antibody (Experimental Example 13); type: in vivo; conditions: for G-CSF concentration in the plasma and bone-marrow fluids: 1 week after transplantation
Procedure: Bone-marrow transplanted mice were prepared in the same manner as in Experimental Example 4, and compound c, G-CSF, and G-CSF neutralizing antibody were examined for the effects. Specifically, the bone-marrow transplanted mice were divided into 5 groups as shown below (each group: n=5) and orally administered respective test drugs.
Group 1: vehicle group (physiological saline was administered via gavage) (“v group”)
Group 2: compound c group (compound c [10 mg/kg/day] was administered via gavage) (“TM group”)
Group 3: G-CSF group (G-CSF [150 μg/kg/day] was administered via gavage) (“G group”)
Group 4: vehicle+anti-G-CSF group (physiological saline+G-CSF neutralizing antibody [500 μg/kg/day] was administered via gavage) (“v+Ab group”)
Group 5: compound c+anti-G-CSF group (compound c [500 μg/kg/day]+G-CSF neutralizing antibody [500 μg/kg/day] was administered via gavage) (“TM+Ab group”)
Concurrently with bone-marrow transplantation, administration of physiological saline (vehicle) to the vehicle group via gavage was started, and the administration continued for 5 consecutive days. Concurrently with bone-marrow transplantation, administration of compound c (10 mg/kg/day) to the compound c group via gavage was started, and the administration continued for 5 consecutive days. Concurrently with bone-marrow transplantation, subcutaneous administration of G-CSF (150 μg/kg/day) to the G-CSF group was started, and the administration continued for 5 consecutive days. Concurrently with bone-marrow transplantation, gavage administration of physiological saline and subcutaneous administration of G-CSF neutralizing antibody (R&D) (500 μg/kg/day) to the vehicle+anti-G-CSF group were started, and the administration continued for 5 consecutive days. Concurrently with bone-marrow transplantation, gavage administration of compound c (10 mg/kg/day) and intraperitoneal administration of G-CSF neutralizing antibody (R&D) (500 μg/kg/day) to the compound c+anti-G-CSF group were started, and the administration continued for 5 consecutive days.
1 week after bone-marrow transplantation, plasma and bone-marrow fluids were collected from mice of each group (v group, TM group, G group, v+Ab group, and TM+Ab group), and the G-CSF concentration (pg/ml) was measured by ELISA. The following were determined in accordance with an ordinary procedure: (B) G-CSF concentration (pg/ml) in bone-marrow fluids, (C) total number of mononucleic cells (×10E7 cell) in the bone marrow, (D) proportion (%) of LSK CD34 negative cells in the bone marrow, (E) total number of LSK CD34 negative cells in the bone marrow, (F) proportion (%) of Lin-SLAM cells in the bone marrow, and (G) total number of Lin-SLAM cells in the bone marrow.

CML cells = test: Chronic myelogenous leukemia model mice, CML cells engrafted onto bone marrow by FACS (Experimental Example 15); type: in vivo
Procedure: Chronic myelogenous leukemia model mice prepared in accordance with the procedure of Experimental Example 11 (1) were divided into 3 groups (each group: n=15) and administered respective test drugs.
Group 1: placebo group (physiological saline was administered via gavage)
Group 2: imatinib group (imatinib [150 mg/kg/day] was administered via gavage)
Group 3: imatinib+compound c group (imatinib [150 mg/kg/day] and compound c [10 mg/kg/day] were administered via gavage)
8 days (day 8) after the day on which CML cells were intravenously inoculated (day 0), administration of test drugs to the groups was started. The placebo group and the imatinib group were administered the respective test drugs once a day from day 8 to day 14 (7 doses in total). The imatinib+compound c group was administered imatinib once a day from day 8 to day 14 (7 doses in total), and also administered compound c once a day from day 8 to day 14 (7 doses in total).
CML cells engrafted onto bone marrow were analyzed by FACS immediately before the administration of a test drug (day 8; “immediately before antitumor agent treatment” in FIG. 19), immediately after the completion of administration of a test drug (day 14; “immediately after antitumor agent treatment” in FIG. 19), and day 28 from the start of administration of a test drug (day 36; “after 28 days” in FIG. 19). […] About 50% leukemia cells were grafted on the bone marrow immediately before administration of a test drug (day 8; “immediately before antitumor agent treatment” in FIG. 19). After the tumor-bearing mice were administered a test drug 7 times (day 14), the proportion of CML cells was analyzed. […] All of the mice in the group administered physiological saline died.

hematopoietic stem cells [2] = test: Hematopoietic recovery after total-body radiation (9Gy) and bone-marrow transplantation (Experimental Example 4); type: in vivo, C57BI6/J mice
Procedure: Specifically, C57BI6/J mice (recipient), which were wild-type inbred strain mice, were treated with total-body radiation (9Gy), and four hours later, bone-marrow cells were transplanted into the mice. Concurrently with the transplantation, compound a was administered to the mice as a test compound via oral gavage (dosage 100 mg/kg), and compound a was daily administered orally for 5 consecutive days (administered group).
The survival rate of the mice after bone-marrow transplantation was tracked over time (each group: n=15).
Bone-marrow cells collected from the mice (administered group and control group) 7 days after bone-marrow transplantation were measured for the presence of Lin-SLAM cells with a flow cytometric analyzer (see FIG. 5A). Each test was independently conducted (each group: n=6).
The proportion (%) of Lin-SLAM cells in the whole bone marrow, the total number of Lin-SLAM cells in the bone marrow, the proportion (%) of LSK-CD34 negative cells in the bone marrow, and the total number of LSK-CD34 negative cells in the bone marrow were measured.
The bone-marrow cells collected from the mice (administered group, control group) 7 days after bone-marrow transplantation were measured for the plasminogen (Plg) mRNA expression level, tPA mRNA expression level, and PAI-1 mRNA expression level.
Bone marrow was collected from the mice (administered group and control group) 13 weeks after bone-marrow transplantation, and the following was measured: the total number of whole bone marrow (FIG. 7A), the proportion (%) of LSK-CD34 negative cells in the whole bone marrow (FIG. 7B), the total number of CD34(−)KSL cells in the whole bone marrow (FIG. 7C), the proportion (%) of Lin-SLAM cells in the whole bone marrow (FIG. 7D), the total number of Lin-SLAM cells in the whole bone marrow (FIG. 7E), the proportion (%) of bone marrow differentiated cells (CD45.1/Mac1/Gr1 cell) in the whole bone marrow (FIG. 7F), the total number of bone marrow differentiated cells (CD45.1/Mac1/Gr1 cell) in the whole bone marrow (FIG. 7G), the proportion (%) of B-cell lymphoid differentiated cells (CD45.1/B 220 cell) in the whole bone marrow (FIG. 7H), and the total number of B cell lymphoid differentiated cells (CD45.1/B 220 cell) in the whole bone marrow (FIG. 7I). The results are shown in the above-stated figures.

[3] = compound c + G-CSF neutralizing antibody 500 μg/kg/day
[4] = 100 mg/kg oral gavage, 5 consecutive days, days 2, 7, 21 after bone-marrow transplantation, versus vehicle control
[5] = 100 mg/kg oral, 7 days after bone-marrow transplantation

**Q.** Which “number of BM MNC” value (hematopoietic stem cells [1]; [3]) does the source give for `O=C(Nc1ccc(Cl)cc1C(=O)O)c1cccc(-c2ccccc2)c1` [Example 4, 2-[(biphenyl-3-ylcarbonyl)amino]-5-chlorobenzoic acid] here?
**A.** did not exhibit a decrease

**Q.** What about the “proportion and number of LSK-CD34 negative cells” value (hematopoietic stem cells [1]; [3]) of the same compound?
**A.** not decreased

**Q.** What about the “G-CSF concentration in the plasma and bone-marrow fluids” value (hematopoietic stem cells [1]; [3]) of the same compound?
**A.** an increase in G-CSF in neither plasma nor bone-marrow fluids

**Q.** What about the “G-CSF concentration in the plasma and bone-marrow fluids” value (hematopoietic stem cells [1]; single agents: compound c 10 mg/kg/day gavage, G-CSF 150 μg/kg/day, G-CSF neutralizing antibody 500 μg/kg/day with vehicle, versus vehicle) of the same compound?
**A.** significant increases

**Q.** What about the “proportion and number of LSK CD34 negative cells” value (hematopoietic stem cells [1]; single agents: compound c 10 mg/kg/day, G-CSF 150 μg/kg/day, G-CSF neutralizing antibody 500 μg/kg/day with vehicle, versus vehicle group) of the same compound?
**A.** increased

**Q.** What about the “number of BM MNC” value (hematopoietic stem cells [1]; single agents: compound c 10 mg/kg/day, G-CSF 150 μg/kg/day, versus vehicle group) of the same compound?
**A.** more increased

**Q.** What about the “CML (leukemia) cells in the bone marrow” value (CML cells; imatinib 150 mg/kg/day + compound c 10 mg/kg/day, day 8 to day 14, analysed day 36) of the same compound?
**A.** 1.8%

**Q.** What about the “proportion of CML cells in the bone marrow” value (CML cells; imatinib + compound c, day 14, after 7 doses, about 50% before treatment) of the same compound?
**A.** marked decrease

**Q.** Which results are given for `O=C(COCC(=O)N1CCN(C(c2ccccc2)c2ccccc2)CC1)Nc1ccc(Cl)cc1C(=O)[O-].[Na+]` [Example 30 (compound group 2), 2-(2-(2-(4-benzhydrylpiperazin-1-yl)-2-oxoethoxy)acetamido)-5-chlorobenzoic acid sodium salt]?
**A.** cKitL level in plasma (hematopoietic stem cells [2]; [4]): significantly higher; plg level in plasma (hematopoietic stem cells [2]; [4]): significantly higher; tPA level in plasma (hematopoietic stem cells [2]; [4]): significantly higher; total MMP-9 level in plasma (hematopoietic stem cells [2]; [4]): significantly higher; white blood cell count in the peripheral blood (hematopoietic stem cells [2]; [4]): significantly higher; survival rate of the mice after bone-marrow transplantation (hematopoietic stem cells [2]; 100 mg/kg oral, concurrently with transplantation and 5 consecutive days, versus control group): significantly higher; whole bone marrow cell number; proportion and total number of LSK-CD34 negative cells, Lin-SLAM cells, bone marrow differentiated cells, B-cell lymphoid differentiated cells (hematopoietic stem cells [2]; 100 mg/kg oral, 13 weeks after bone-marrow transplantation, versus vehicle control): significantly higher; frequency of hematopoietic stem cells (Lin-SLAM cells, LSK-CD34 negative cells in bone marrow) (hematopoietic stem cells [2]; [5]): increases; mRNA expression of plasminogen, tissue-type plasminogen activator, and plasminogen activator inhibitor 1 in bone marrow (hematopoietic stem cells [2]; [5]): induces
